# Experimental data from patent publication US7541020B2, “Aminoalkyl glucosaminide phosphate compounds and their use as adjuvants and immunoeffectors” (priority 1997, dated 2009).
# Like-named read-outs stand apart in the source and are kept apart here.
# Tests used:
# [1] = system: TNF-α; test: Cytokine induction in human whole blood ex vivo culture: TNF-α (ELISA); type: cell-based; details: 4 hr
# Description: (§1) AGP compounds were solubilized in 10% EtOH-water and diluted to various concentrations. Fifty μl of each dilution were added to 450 μl of whole human blood. Controls were treated with culture media (RPMI). The reaction mixture was incubated at 37° C. for 4 hr with constant mixing on a rotator. Sterile PBS (1.5 ml) was added to the reaction mixture, the cells were centrifuged and the supernatents removed for cytokine testing. The concentration of TNF-α and IL-1β in each supernatent was determined using immunoassay ELISA kits from R&D Systems.
# [2] = system: IL-1β; test: Cytokine induction in human whole blood ex vivo culture: IL-1β (ELISA); type: cell-based; details: 4 hr
# Description: as §1
# [3] = system: E.G7 (OVA) cells; details: s.c. 25 μg OVA in AGP preparation, spleen cells 21 days later
# [4] = system: influenza A/HK/68; type: in vivo, BALB/c mice
# [5] = system: tetanus toxoid; details: mouse, in vivo, sc
# [6] = system: influenza A/HK/68; design: species or system ICR mice; details: mouse, in vivo
# [7] = Fever response in rabbits (pyrogenicity); type: in vivo; details: for PYROGENICITY Total Rise ° C., 3 rabbits: 10 ug/kg, cumulative rise ≥1.5 degree in three rabbits is considered pyrogenic; for PY[…]: rabbits
# Description: The AGP compounds were also evaluated for their tendency to induce a fever response in rabbits. Each compound was formulated in 10% (v/v) ethanol/water solution at 100 mg/ml, then diluted with D5W to the desired concentration. The material was injected at 3 ml/kg body weight into 3 rabbits. The rise in core temperature of the rabbits was recorded.
# [8] = system: ovalbumin; test: Stimulation of antiovalbumin antibody production; type: in vivo, BDF1 female mice; details: 50 μg AGP + 50 μg ovalbumin; second immunization day 21; bled 14 days after second injection
# Description: BDF1 female mice (8 per group) were immunized with 0.2 ml of emulsions containing 50 μg of the AGPs +50 μg of ovalbumin. A second immunization was administered 21 days post primary. Each mouse was bled 14 days after the second injection.
# [9] = system: influenza A/HK/68; type: in vivo, ICR mice; details: mouse, in vivo
# [10] = 25 μg AGP + 1 HAU FI-Flu in 2% Squalene, SQ once, bled 14 days after vaccination
molecule,measurement,setting,value
CCCCCCCCCCC[C@H](CC(=O)N[C@H]1[C@H](OCCCN(CC(=O)O)C(=O)C[C@@H](CCCCCCCCCCC)OC(=O)CCCCCCCCC)O[C@H](CO)[C@@H](OP(=O)(O)O)[C@@H]1OC(=O)C[C@@H](CCCCCCCCCCC)OC(=O)CCCCCCCCC)OC(=O)CCCCCCCCC.CCN(CC)CC [B28],TNF-α,"[1]; Dosage 1000 ng/ml, Table 19",139 pg/mL
same,TNF-α,"[1]; Dosage 5000 ng/ml, Table 19",197 pg/mL
same,TNF-α,"[1]; Dosage 10,000 ng/ml, Table 19",198 pg/mL
same,IL-1β,"[2]; Dosage 1000 ng/ml, Table 19",8 pg/mL
same,IL-1β,"[2]; Dosage 5000 ng/ml, Table 19",13 pg/mL
same,IL-1β,"[2]; Dosage 10,000 ng/ml, Table 19",13 pg/mL
same,% Cytotoxicity,[3]; E:T 12.5:1,9%
same,% Cytotoxicity,[3]; E:T 25:1,15%
same,% Cytotoxicity,[3]; E:T 50:1,28%
same,Percent Survival,"[4]; 25 μg AGP + 1 HAU FI-Flu in 2% Squalene, SQ once, […], mortality 21 days",50%
same,Anti-influenza Titer^−1 IgG1,[4]; [10],400
same,Anti-influenza Titer^−1 IgG2a,[4]; [10],400
same,Anti-influenza Titer^−1 IgG2b,[4]; [10],100
same,Anti-influenza Titer^−1 Total IgG,[4]; [10],800
same,Anti-tetanus toxoid IgG1 T/C,[5],92.5
same,Anti-tetanus toxoid IgG1 Titer,[5],"137,600"
same,Anti-tetanus toxoid IgG2a T/C,[5],664.7
same,Anti-tetanus toxoid IgG2a Titer,[5],"9,970"
same,Anti-tetanus toxoid IgG2b T/C,[5],519.2
same,Anti-tetanus toxoid IgG2b Titer,[5],"27,520"
same,Anti-tetanus toxoid IgM T/C,[5],3.7
same,Anti-tetanus toxoid IgM Titer,[5],"2,080"
same,Anti-tetanus toxoid Total Ig T/C,[5],228.6
same,Anti-tetanus toxoid Total Ig Titer,[5],"54,500"
3-Hydroxy-(S)-2-[(R)-3-decanoyloxytetradecanoylamino]propyl 2-Deoxy-6-O-phosphono-2-[(R)-3-decanoyloxytetradecanoylamino]-3-O-[(R)-3-decanoyloxytetradecanoyl]-β-D-glucopyranoside Triethylammonium Salt [B6],% Cytotoxicity,[3]; E:T 12.5:1,37%
same,% Cytotoxicity,[3]; E:T 25:1,41%
same,% Cytotoxicity,[3]; E:T 50:1,54%
same,Anti-influenza Titer^−1 IgG1,"[4]; mouse, in vivo",800
same,Anti-influenza Titer^−1 IgG2a,"[4]; mouse, in vivo",400
same,Anti-influenza Titer^−1 IgG2b,"[4]; mouse, in vivo",1600
same,Anti-influenza Titer^−1 Total IgG,"[4]; mouse, in vivo",800
same,Percent Survival,"[4]; mouse, in vivo",75%
same,IgG Titer-1 post 1°,[6],1600
same,IgG Titer-1 post 2°,[6],"102,400"
same,Percent Survival post 1°,[6],80%
same,Percent Survival post 2°,[6],70%
"CCCCCCCCCCCCCC(=O)OC(CCCCCCCCCCC)CC(=O)NC(COC1OC(CO)C(OP(=O)(O)O)C(OC(=O)CC(CCCCCCCCCCC)OC(=O)CCCCCCCCCCCCC)C1NC(=O)CC(CCCCCCCCCCC)OC(=O)CCCCCCCCCCCCC)C(N)=O.CCN(CC)CC [B24, N-[(R)-3-Tetradecanoyloxytetradecanoyl]-O-phosphono-2-[(R)-3-tetradecanoyloxytetradecanoylamino]-3-O-[(R)-3-tetradecanoyloxytetradecanoyl]β-D-glucopyranosyl]-L-serinamide Triethylammonium Salt]","PYROGENICITY Total Rise ° C., 3 rabbits",[7],2.4 °C
same,PY[…],[7],2.5 to 5 µg/kg
3-Hydroxy-(S)-2-[(R)-3-tetradecanoyloxytetradecanoylamino]propyl 2-Deoxy-4-O-phosphono-2-[(R)-3-tetradecanoyloxytetradecanoylamino]-3-O-[(R)-3-tetradecanoyloxytetradecanoyl]-β-D-glucopyranoside Triethylammonium Salt [B1],Anti-ovalbumin IgG1 T/C,[8],0.5
same,Anti-ovalbumin IgG1 Titer,[8],763
same,Anti-ovalbumin IgG2a T/C,[8],0.2
same,Anti-ovalbumin IgG2a Titer,[8],56
same,Anti-ovalbumin IgG2b T/C,[8],0.8
same,Anti-ovalbumin IgG2b Titer,[8],188
same,Anti-ovalbumin IgM T/C,[8],0.8
same,Anti-ovalbumin IgM Titer,[8],150
same,Anti-ovalbumin Total Ig T/C,[8],0.5
same,Anti-ovalbumin Total Ig Titer,[8],119
same,Percent Survival,[9],40%
same,Titer−1 IgG1,[9],6400
same,Titer−1 IgG2a,[9],1600
same,Titer−1 IgG2b,[9],15600
same,Titer−1 Total IgG,[9],"12,800"
same,% Cytotoxicity,[3]; E:T 12.5:1,15%
same,% Cytotoxicity,[3]; E:T 25:1,24%
same,% Cytotoxicity,[3]; E:T 50:1,34%
same,"PYROGENICITY Total Rise ° C., 3 rabbits",[7],0.1 °C
N-[(R)-3-Undecanoyloxytetradecanoyl]-O-[2-deoxy-4-O-phosphono-2-[(R)-3-undecanoyloxytetradecanoylamino]-3-O-[(R)-3-undecanoyloxytetradecanoyl]-β-D-glucopyranosyl]-L-serine Triethylammonium Salt [B13],TNF-α,"[1]; Dosage 100 ng/ml, Table 17",302 pg/mL
same,TNF-α,"[1]; Dosage 500 ng/ml, Table 17",411 pg/mL
same,TNF-α,"[1]; Dosage 1000 ng/ml, Table 15",740 pg/mL
same,TNF-α,"[1]; Dosage 1000 ng/ml, Table 17",478 pg/mL
same,TNF-α,"[1]; Dosage 5000 ng/ml, Table 15",716 pg/mL
same,TNF-α,"[1]; Dosage 5000 ng/ml, Table 17",592 pg/mL
same,TNF-α,"[1]; Dosage 10,000 ng/ml, Table 15",775 pg/mL
same,TNF-α,"[1]; Dosage 10,000 ng/ml, Table 17",583 pg/mL
same,IL-1β,"[2]; Dosage 100 ng/ml, Table 17",261 pg/mL
same,IL-1β,"[2]; Dosage 500 ng/ml, Table 17",352 pg/mL
same,IL-1β,"[2]; Dosage 1000 ng/ml, Table 15",177 pg/mL
same,IL-1β,"[2]; Dosage 1000 ng/ml, Table 17",327 pg/mL
same,IL-1β,"[2]; Dosage 5000 ng/ml, Table 15",187 pg/mL
same,IL-1β,"[2]; Dosage 5000 ng/ml, Table 17",390 pg/mL
same,IL-1β,"[2]; Dosage 10,000 ng/ml, Table 15",THTC*
same,IL-1β,"[2]; Dosage 10,000 ng/ml, Table 17",282 pg/mL
same,Percent Survival,[9],50%
same,Titer^−1 IgG1,[9],800
same,Titer^−1 IgG2a,[9],400
same,Titer^−1 IgG2b,[9],800
same,Titer^−1 Total IgG,[9],1600
same,% Cytotoxicity,[3]; E:T 12.5:1,10%
same,% Cytotoxicity,[3]; E:T 25:1,15%
same,% Cytotoxicity,[3]; E:T 50:1,28%
same,Anti-tetanus toxoid IgG2a T/C,[5],220
same,Anti-tetanus toxoid IgG2a titer,[5],3740
same,Anti-tetanus toxoid IgG2b T/C,[5],>208
same,Anti-tetanus toxoid IgG2b titer,[5],">13,760"
same,Anti-tetanus toxoid IgM T/C,[5],3.9
same,Anti-tetanus toxoid IgM titer,[5],6080
3-Hydroxy-(R)-2-[(R)-3-tetradecanoyloxytetradecanoylamino]propyl 2-Deoxy-4-O-phosphono-2-[(R)-3-tetradecanoyloxytetradecanoylamino]-3-O-[(R)-3-tetradecanoyloxytetradecanoyl]-β-D-glucopyranoside Triethylammonium Salt [B2],Anti-ovalbumin IgG1 T/C,[8],5.0
same,Anti-ovalbumin IgG1 Titer,[8],8300
same,Anti-ovalbumin IgG2a T/C,[8],2.5
same,Anti-ovalbumin IgG2a Titer,[8],825
same,Anti-ovalbumin IgG2b T/C,[8],2.3
same,Anti-ovalbumin IgG2b Titer,[8],550
same,Anti-ovalbumin IgM T/C,[8],0.9
same,Anti-ovalbumin IgM Titer,[8],175
same,Anti-ovalbumin Total Ig T/C,[8],2.5
same,Anti-ovalbumin Total Ig Titer,[8],563
same,% Cytotoxicity,[3]; E:T 12.5:1,6%
same,% Cytotoxicity,[3]; E:T 25:1,12%
same,% Cytotoxicity,[3]; E:T 50:1,21%
same,"PYROGENICITY Total Rise ° C., 3 rabbits",[7],3.6 °C
same,PY[…],[7],2.5 to 5 µg/kg
N-[(R)-3-Nonanoyloxytetradecanoyl]-O-[2-deoxy-4-O-phosphono-2-[(R)-3-nonanoyloxytetradecanoylamino]-3-O-[(R)-3-nonanoyloxytetradecanoyl]-β-D-glucopyranosyl]-L-serine Triethylammonium Salt [B16],TNF-α,"[1]; Dosage 500 ng/ml, Table 17",55 pg/mL
same,TNF-α,"[1]; Dosage 1000 ng/ml, Table 15",155 pg/mL
same,TNF-α,"[1]; Dosage 1000 ng/ml, Table 17",72 pg/mL
same,TNF-α,"[1]; Dosage 5000 ng/ml, Table 15",277 pg/mL
same,TNF-α,"[1]; Dosage 5000 ng/ml, Table 17",114 pg/mL
same,TNF-α,"[1]; Dosage 10,000 ng/ml, Table 15",291 pg/mL
same,TNF-α,"[1]; Dosage 10,000 ng/ml, Table 17",121 pg/mL
same,IL-1β,"[2]; Dosage 500 ng/ml, Table 17",17.1 pg/mL
same,IL-1β,"[2]; Dosage 1000 ng/ml, Table 15",39 pg/mL
same,IL-1β,"[2]; Dosage 1000 ng/ml, Table 17",19.5 pg/mL
same,IL-1β,"[2]; Dosage 5000 ng/ml, Table 15",53 pg/mL
same,IL-1β,"[2]; Dosage 5000 ng/ml, Table 17",34.0 pg/mL
same,IL-1β,"[2]; Dosage 10,000 ng/ml, Table 15",55 pg/mL
same,IL-1β,"[2]; Dosage 10,000 ng/ml, Table 17",41.0 pg/mL
same,Percent Survival,[9],40%
same,Titer^−1 IgG1,[9],1600
same,Titer^−1 IgG2a,[9],100
same,Titer^−1 IgG2b,[9],800
same,Titer^−1 Total IgG,[9],800
same,% Cytotoxicity,[3]; E:T 12.5:1,20%
same,% Cytotoxicity,[3]; E:T 25:1,29%
same,% Cytotoxicity,[3]; E:T 50:1,42%
same,Anti-tetanus toxoid IgG2a T/C,[5],66.8
same,Anti-tetanus toxoid IgG2a titer,[5],1135
same,Anti-tetanus toxoid IgG2b T/C,[5],104
same,Anti-tetanus toxoid IgG2b titer,[5],6880
same,Anti-tetanus toxoid IgM T/C,[5],1.6
same,Anti-tetanus toxoid IgM titer,[5],2560
N-[(R)-3-Hexanoyloxytetradecanoyl]-O-[2-deoxy-4-O-phosphono-2-[(R)-3-hexanoyloxytetradecanoylamino]-3-O-[(R)-3-hexanoyloxytetradecanoyl]-α-d-glucopyranosyl]-l-serinamide Triethylammonium Salt [B29],% Cytotoxicity,[3]; E:T 12.5:1,5%
same,% Cytotoxicity,[3]; E:T 25:1,9%
same,% Cytotoxicity,[3]; E:T 50:1,16%
same,"PYROGENICITY Total Rise ° C., 3 rabbits",[7],0.7 °C
